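How tested: cells in 96-well plates exposed to compound for 48 hours at five concentrations. Here, GI50 denotes the concentration required for 50% inhibition of growth.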 Calls of active or inactive are those of the source. No stated cut-off is given here; in the data, active = GI50 up to about 1.1 µM and inactive = higher.
Experiments:
Test in all cases: DTP human tumour cell line panel, 48 h
RPMI-8226 = system: RPMI-8226
HCC 2998 = system: HCC 2998
KM-20L2 = system: KM-20L2
RXF 393 = system: RXF 393
UACC-257 = system: UACC-257
SF-268 = system: SF-268
DLD-1 = system: DLD-1
TK-10 = system: TK-10
SK-MEL-2 = system: SK-MEL-2
OVCAR-5 = system: OVCAR-5
SR = system: SR
SNB-75 = system: SNB-75
SF-295 = system: SF-295
LOX IMVI = system: LOX IMVI
K562 = system: K562
HOP-62 = system: HOP-62
EKVX = system: EKVX
HCT-15 = system: HCT-15
SW-620 = system: SW-620
NCI-H226 = system: NCI-H226

Row | Compound | GI50 (RPMI-8226) | GI50 (HCC 2998) | GI50 (KM-20L2) | GI50 (RXF 393) | GI50 (UACC-257) | GI50 (SF-268) | GI50 (DLD-1) | GI50 (TK-10) | GI50 (SK-MEL-2) | GI50 (OVCAR-5) | GI50 (SR) | GI50 (SNB-75) | GI50 (SF-295) | GI50 (LOX IMVI) | GI50 (K562) | GI50 (HOP-62) | GI50 (EKVX) | GI50 (HCT-15) [µM] | GI50 (SW-620) | GI50 (NCI-H226)
1 | O=C(CC1Sc2ccccc2NC1=O)Nc1ccccc1[N+](=O)[O-] (stereo not drawn) | > 100 µM (inactive) | > 100 µM (inactive) | > 100 µM (inactive) | > 100 µM (inactive) | > 100 µM (inactive) | > 100 µM (inactive) | > 100 µM (inactive) | > 100 µM (inactive) | > 100 µM (inactive) | > 100 µM (inactive) | 12.2 µM (inactive) | > 100 µM (inactive) | > 100 µM (inactive) | > 100 µM (inactive) | > 100 µM (inactive) | > 100 µM (inactive) | > 100 µM (inactive) | > 100 | > 100 µM (inactive) | > 100 µM (inactive)
2 | O=C1C(Cl)N(c2ccc([N+](=O)[O-])cc2)C1c1c[nH]c2ccccc12 (stereo not drawn) | 30.8 µM (inactive) | – | 41.2 µM (inactive) | > 100 µM (inactive) | 64.1 µM (inactive) | > 100 µM (inactive) | 38.1 µM (inactive) | > 100 µM (inactive) | > 100 µM (inactive) | > 100 µM (inactive) | 19.5 µM (inactive) | > 100 µM (inactive) | > 100 µM (inactive) | – | 55 µM (inactive) | > 100 µM (inactive) | > 100 µM (inactive) | – | > 100 µM (inactive) | –
3 | Cc1ccc(N2Cc3c(ccc4ccccc34)OP2(=S)N2CCCC2)cc1 (stereo not drawn) | > 22 µM (inactive) | > 100 µM (inactive) | > 100 µM (inactive) | > 100 µM (inactive) | > 100 µM (inactive) | > 100 µM (inactive) | > 100 µM (inactive) | – | > 100 µM (inactive) | > 100 µM (inactive) | – | > 100 µM (inactive) | > 67.8 µM (inactive) | > 100 µM (inactive) | > 89.9 µM (inactive) | > 100 µM (inactive) | > 100 µM (inactive) | > 100 | > 100 µM (inactive) | > 100 µM (inactive)
4 | O=NN(CC1(O)OCC(O)C(O)C1O)C(Cc1c[nH]c2ccccc12)C(=O)O (stereo not drawn) | > 100 µM (inactive) | > 100 µM (inactive) | > 100 µM (inactive) | > 100 µM (inactive) | > 100 µM (inactive) | – | > 100 µM (inactive) | > 100 µM (inactive) | > 100 µM (inactive) | > 100 µM (inactive) | – | > 100 µM (inactive) | – | > 100 µM (inactive) | > 100 µM (inactive) | > 100 µM (inactive) | > 100 µM (inactive) | – | > 100 µM (inactive) | –
5 | COc1cccc(NC(=O)CC(=O)NN2C(=O)/C(=C/c3ccc(N(CCC#N)CCC#N)cc3)N=C2c2cc([N+](=O)[O-])ccc2Cl)c1 | 30.3 µM (inactive) | 96.8 µM (inactive) | 25.8 µM (inactive) | > 100 µM (inactive) | – | > 100 µM (inactive) | 60.3 µM (inactive) | > 100 µM (inactive) | > 100 µM (inactive) | 25.5 µM (inactive) | 22.4 µM (inactive) | – | 87.1 µM (inactive) | > 100 µM (inactive) | 44.3 µM (inactive) | > 100 µM (inactive) | 56.1 µM (inactive) | > 100 | > 100 µM (inactive) | 13.6 µM (inactive)
6 | Cc1[nH]c(=O)[nH]c(=O)c1/C=C/C(=O)NC(CO)CC(C)C (stereo not drawn) | > 375 µM (inactive) | 222 µM (inactive) | 88.1 µM (inactive) | > 375 µM (inactive) | > 375 µM (inactive) | 231 µM (inactive) | > 375 µM (inactive) | – | > 305 µM (inactive) | > 265 µM (inactive) | – | 226 µM (inactive) | > 375 µM (inactive) | > 375 µM (inactive) | 179 µM (inactive) | > 375 µM (inactive) | > 375 µM (inactive) | > 360 | 351 µM (inactive) | > 375 µM (inactive)
7 | COc1ccccc1NC(=O)C(=O)C(C(=O)c1ccccc1F)C1OC(=O)c2ccccc21 (stereo not drawn) | 20.2 µM (inactive) | 14.8 µM (inactive) | 24.9 µM (inactive) | 42.9 µM (inactive) | 54.8 µM (inactive) | 29.9 µM (inactive) | 33.3 µM (inactive) | 50 µM (inactive) | 17.6 µM (inactive) | 45.1 µM (inactive) | 22.2 µM (inactive) | 21.9 µM (inactive) | 43.1 µM (inactive) | 20.8 µM (inactive) | 32.7 µM (inactive) | 30.5 µM (inactive) | 27.9 µM (inactive) | 25 | 32.9 µM (inactive) | 15.6 µM (inactive)
8 | CC1(Cl)CC2C(CC1Sc1nnnn1-c1ccccc1)C2(C)C (stereo not drawn) | 27.8 µM (inactive) | > 100 µM (inactive) | 95.5 µM (inactive) | 48.9 µM (inactive) | 87.3 µM (inactive) | > 100 µM (inactive) | > 100 µM (inactive) | > 100 µM (inactive) | > 100 µM (inactive) | > 100 µM (inactive) | 29.6 µM (inactive) | – | 40.8 µM (inactive) | > 100 µM (inactive) | 32.4 µM (inactive) | > 100 µM (inactive) | 28.1 µM (inactive) | 41.3 | > 100 µM (inactive) | > 100 µM (inactive)
9 | CSCC[C@@H](NC(=O)[C@H](CC(C)C)NC(=O)C(Cc1cnc[nH]1)NC(=O)CNC(=O)[C@@H](NC(=O)[C@H](C)NC(=O)[C@H](Cc1cn(C=O)c2ccccc12)NC(=O)[C@H](CCC(N)=O)NC(=O)[C@@H](N)CC(N)=O)C(C)C)C(N)=O (stereo partly drawn) | > 100 µM (inactive) | > 100 µM (inactive) | > 100 µM (inactive) | > 100 µM (inactive) | > 100 µM (inactive) | > 100 µM (inactive) | > 100 µM (inactive) | – | > 100 µM (inactive) | > 100 µM (inactive) | – | > 100 µM (inactive) | > 100 µM (inactive) | 53.8 µM (inactive) | > 100 µM (inactive) | > 100 µM (inactive) | > 100 µM (inactive) | > 100 | > 100 µM (inactive) | > 100 µM (inactive)
10 | COC(=O)C1=C(C)C(=O)[C@H]2C(C(=O)OC)CCCC[C@@H]12 (stereo partly drawn) | 66.2 µM (inactive) | > 100 µM (inactive) | > 100 µM (inactive) | > 100 µM (inactive) | 45.6 µM (inactive) | > 100 µM (inactive) | > 100 µM (inactive) | > 100 µM (inactive) | > 100 µM (inactive) | > 100 µM (inactive) | 49.1 µM (inactive) | > 100 µM (inactive) | > 100 µM (inactive) | – | 55.8 µM (inactive) | > 100 µM (inactive) | > 100 µM (inactive) | > 100 | > 100 µM (inactive) | > 100 µM (inactive)
11 | NCCCCCC(CCN)SCC1OC(n2cnc3c(N)ncnc32)C(O)C1O (stereo not drawn) | 292 µM (inactive) | > 1150 µM (inactive) | 482 µM (inactive) | 1060 µM (inactive) | > 1260 µM (inactive) | 1460 µM (inactive) | > 1500 µM (inactive) | – | > 1500 µM (inactive) | > 1500 µM (inactive) | – | > 1500 µM (inactive) | 469 µM (inactive) | > 1060 µM (inactive) | 436 µM (inactive) | > 809 µM (inactive) | > 555 µM (inactive) | > 946 | > 1500 µM (inactive) | 589 µM (inactive)
12 | COc1c(O)c(C=O)c2c(O)c(-c3c(C)cc4c(C(C)C)c(OC)c(O)c(C=O)c4c3O)c(C)cc2c1C(C)C [6,6'-METHOXYGOSSYPOL] | 4.32 µM (inactive) | 2.65 µM (inactive) | 6.01 µM (inactive) | 2.52 µM (inactive) | 10.9 µM (inactive) | 5.71 µM (inactive) | 4.38 µM (inactive) | 6.71 µM (inactive) | 4.45 µM (inactive) | 7.08 µM (inactive) | 4.4 µM (inactive) | 2.4 µM (inactive) | 4.19 µM (inactive) | – | 11.8 µM (inactive) | 2.98 µM (inactive) | 4.86 µM (inactive) | 3.74 | 5.33 µM (inactive) | 2.43 µM (inactive)

Reference: ChEMBL document CHEMBL1201862, “PubChem BioAssay data set” (2004)
